# Patent publication US20220354835A1, “COMPOUNDS FOR DEGRADING TAU PROTEIN AGGREGATES AND USES THEREOF” (Aprinoia Therapeutics Limited, priority 2019, published 2022)
# Target: T1, Tau aggregates in P301L-Tau-FL-GFP HEK293 cells (Homo sapiens, UniProt P10636, P618L)
# T1 construct: express full-length human tau T40 (2N4R) carrying the P301L mutation with a GFP tag; expressed in transfected cells
# Test: Tau degradation assay (APNmAb005 ELISA-based Tau aggregation assay)
# Format: cell-based
# Conditions: 1 μM compound, APNmAb005 ELISA
# Procedure: (A). Cell-based model of Tau inclusion formation: Six month old rTg4510 mouse brain lysates were used as the source of tau seeds, prepared as described in Example 26 above. P301L-Tau-FL-GFP HEK293 cells represent HEK293 cells express full-length human tau T40 (2N4R) carrying the P301L mutation with a GFP tag (P301L-Tau-FL-GFP). 1×10^6 of P301L-Tau-FL-GFP HEK293 cells were cultured on a 6-well plate in culture medium containing DMEM/F-12 (Gibco) supplemented with 10% fetal bovine serum (FBS) (Gibco), 1% Penicillin-Streptomycin (Gibco) and 0.5 mg/ml geneticin (Thermo Fisher Scientific) for 24 hours to reach 70-90% confluency, indicating the cells were ready for transfection. 50 μg of 6-month-old rTg4510 mouse brain lysate was diluted in 400 μL of serum free medium and mixed with 16 μL of lipofectamine 3000 reagent (Thermo Fisher Scientific) diluted in 400 μl of serum free medium. A solution mixture of rTg4510 brain lysate and lipofectamine 3000 was incubated at room temperature for 25 min. The culture media were removed, and then a solution mixture of rTg4510 lysate and lipofectamine 3000 was added to the cells for transfection. The solution mixture was incubated at room temperature for five hours, followed by medium change to 10% fetal bovine serum (FBS). After two-day incubation, Tau aggregates (Tau spots) were induced and images were acquired by ImageXpress Micro Confocal high-content imaging system (Molecular Devices) as described in Example 52 above. Analysis was performed by two customized modules in MetaXpress software (Molecular Devices) for aggregated tau analysis. Output included cell numbers, numbers of tau spots, average intensity of tau spots, and average size of tau spots.
# (B). Compound treatment: 100 μL of 3×10^4 cells comprising Tau aggregates, prepared as described above in step (A), were plated on a 96-well plate coated with poly-D-lysine (BD Biosciences) and cultured for 24 hours. Compounds to be tested were dissolved in culture medium containing 0.1% DMSO. Each of test compounds in the concentration of 1, 0.2 and 0.04 μM was added to the cells comprising Tau aggregates and incubated at 37° C. for 24 hours. After that, culture medium was removed, cells were washed with PBS solution and then lysed using 30 μL of lysis buffer (PBS containing 0.3% Triton X-100 and 400 mM NaCl) for one hour at 4° C., and then cell lysate was diluted by 170 μl of PBS containing 400 mM NaCl. Cell lysate was filtrated by a […] filtration plate (Pall) and applied for Tau aggregation assay.
# (C). Control cell lysate: control cell lysate was collected from non-seeded cells.
# (D). ELISA-based Tau aggregation assay: APNmAb005 ELISA kit for Tau aggregation assay was designed and developed to detect abnormal tau aggregates in buffered solution or cell lysate by using anti-Tau APNmab005 as capture and detection antibody. This antibody is a highly specific antibody bound to human tau aggregates accumulated in mammalian cells. APNmAb005 is recited in PCT Patent Application No. PCT/M2020/057415, filed Aug. 5, 2020, which is incorporated herein by reference.
# 0.15 μg of APNmAb005 in 100 mM sodium carbonate buffer (pH 9.6) was coated on a high-binding polystyrene 96-well microplate (Greiner Bio-One) at 4° C. overnight. The microplate was washed with PBS followed by treatment with Intercept (PBS) blocking buffer (LI-COR) at room temperature for 2 hours. After that, the microplate was washed with PBS, and then the cell lysate with compound treatment, prepared as described above in step (C), was added into each well of the microplate and incubated at room temperature for 2 hours. The microplate was washed with PBS and then incubated with HRP-conjugated secondary antibody APNmAb005 at room temperature for 3 hours. HRP-conjugated secondary antibody APNmAb005 was prepared using HRP conjugation kit (Abcam,ab102890). The microplate was then washed with PBS and incubated with 100 μL of horseradish peroxidase (HRP) substrate at room temperature. […]
# T1 sequence (P10636 1-441 isoform P10636-8 P301L): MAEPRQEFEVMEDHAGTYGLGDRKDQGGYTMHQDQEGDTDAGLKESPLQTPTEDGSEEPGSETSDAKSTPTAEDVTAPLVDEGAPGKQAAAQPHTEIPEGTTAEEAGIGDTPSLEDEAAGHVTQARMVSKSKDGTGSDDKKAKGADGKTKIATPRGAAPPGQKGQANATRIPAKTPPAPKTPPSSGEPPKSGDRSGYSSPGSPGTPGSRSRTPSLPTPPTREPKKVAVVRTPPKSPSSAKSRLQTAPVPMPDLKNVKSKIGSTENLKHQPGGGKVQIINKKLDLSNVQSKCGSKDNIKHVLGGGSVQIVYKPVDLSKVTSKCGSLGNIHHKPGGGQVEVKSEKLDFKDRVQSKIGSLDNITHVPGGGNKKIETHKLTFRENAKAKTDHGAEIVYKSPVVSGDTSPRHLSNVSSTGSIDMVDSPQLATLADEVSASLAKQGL
row,Optical Density (O.D.) 450 value decrease compared to vehicle (reduction of Tau aggregates) [%],Compound
1,20,CN(C)c1ccc(-c2ccc(-c3cn4cccc(OCCOCCOc5ccc6c(c5)CN(C5CCC(=O)NC5=O)C6=O)c4n3)cc2)cn1 (stereo not drawn) [Compound 162842]

# Same assay, conditions: 1 μM of compound, 24 hours, P301L-Tau-FL-GFP HEK293 cells seeded with rTg4510 brain lysate; read-out: Activity (reduction of tau aggregates)
row,inhibition at 1 µM [%],Compound
1,10 to 20,CN(C)c1ccc(-c2ccc(-c3nc4ccc(OCCOCCOc5ccc6c(c5)CN(C5CCC(=O)NC5=O)C6=O)cc4s3)cc2)cn1 (stereo not drawn) [Compound 163123]
2,10 to 20,CN(C)c1ccc(-c2ccc(-c3nc4ccc(OCCOCCOc5ccc6c(c5)CN(C5CCC(=O)NC5=O)C6=O)cc4o3)cc2)cn1 (stereo not drawn) [Compound 163365]
3,10 to 20,CN(C)c1ccc(-c2ccc(-c3cn4cc(OCCOCCN5C(=O)CCC(N6C(=O)c7ccc(O)cc7C6=O)C5=O)ccc4n3)cc2)c(F)n1 (stereo not drawn) [Compound 170350]
4,< 10,CN(C)c1ccc(-c2ccc(-c3nc4ccc(OCCOCCOCCOc5ccc6c(c5)CN(C5CCC(=O)NC5=O)C6=O)cc4s3)c(C(F)(F)F)c2)cn1 (stereo not drawn) [Compound 174251]
5,< 10,CN(C)c1ccc2nc(-c3ccc(-c4ccc(NCCOCCOc5ccc6c(c5)CN(C5CCC(=O)NC5=O)C6=O)nc4)cc3C(F)(F)F)sc2c1 (stereo not drawn) [Compound 177031]
6,< 10,COc1ccc2nc(-c3ccc(-c4ccc(NCCOCCOc5cccc6c5C(=O)N(C5CCC(=O)NC5=O)C6=O)nc4)cc3)sc2c1 (stereo not drawn) [Compound 177038]

# The next lines start with the molecule.
row,Compound,inhibition at 1 µM [%]
1,"CN(C)c1ccc(-c2ccc(-c3nc4ccc(NCCOCCOCCOCCOc5ccc6c(c5)C(=O)N(C5CCC(=O)NC5=O)C6=O)cc4s3)cc2)cn1 (stereo not drawn) [Compound 160939, 2-[2,6-bis(oxo)piperidin-3-yl]-5-[2-[2-[2-[2-[[2-[4-[6-(dimethylamino)pyridin-3-yl]-phenyl]-1,3-benzothiazol-6-yl]amino]ethoxy]ethoxy]ethoxy]ethoxy]isoindole-1,3-dione]",< 10
2,"COc1ccc2nc(-c3ccc(-c4ccc(NCCOCCOc5ccc6c(c5)C(=O)N(C5CCC(=O)NC5=O)C6=O)nc4F)cc3)cn2c1 (stereo not drawn) [Compound 161215, 2-[2,6-bis(oxo)piperidin-3-yl]-5-[2-[2-[[6-fluoro-5-[4-(6-methoxyimidazo[1,2-a]pyridin-2-yl)phenyl]pyridin-2-yl]amino]ethoxy]ethoxy]isoindole-1,3-dione]",10 to 20
3,COc1ccc2nc(-c3ccc(-c4ccc(NCCOCCOCCOCCOCCOCCOc5ccc6c(c5)C(=O)N(C5CCC(=O)NC5=O)C6=O)nc4F)cc3)cn2c1 (stereo not drawn) [Compound 161409],10 to 20
4,"COc1ccc2nc(-c3ccc(-c4ccnc(NCCOCCOc5ccc6c(c5)CN(C5CCC(=O)NC5=O)C6=O)c4)cc3)cn2c1 (stereo not drawn) [Compound 162640, 3-[6-[2-[2-[[4-[4-(6-methoxyimidazo[1,2-a]pyridin-2-yl)phenyl]pyridin-2-yl]amino]ethoxy]ethoxy]-3-oxidanylidene-1H-isoindol-2-yl]piperidine-2,6-dione]",10 to 20
5,CN(C)c1ccc(-c2ccc(-c3cn4cccc(OCCOCCOc5ccc6c(c5)CN(C5CCC(=O)NC5=O)C6=O)c4n3)cc2)cn1 (stereo not drawn) [Compound 162842],> 20
6,CN(C)c1ccc(-c2ccc(-c3nc4ccc(OCCOCCOc5ccc6c(c5)CN(C5CCC(=O)NC5=O)C6=O)cc4s3)c(C(F)(F)F)c2)cn1 (stereo not drawn) [Compound 162903],10 to 20

# Target: T2, heparin-induced aggregated tau (aTau), full-length 2N4R human Tau (Homo sapiens, UniProt P10636)
# T2 construct: transformed with a full-length 2N4R tau expression plasmid; made in house; host or cells: E. coli BL21
# Test: In vitro fluorometric aTau binding assay
# Conditions: 0.04 μM aTau, serially diluted compound 10 to 0.00017 μM, 37° C. 1 hour, fluorescence
# Procedure: (§1) (A) Expression and purification of human Tau: 1 mM IPTG (Sangon Biotech, Cat. No A100487) was used to induce production of tau by bacteria (BL21, Invitrogen, Cat. No C600003) transformed with a full-length 2N4R tau expression plasmid. After 3 hours, cell pellet was resuspended in lysis buffer (100 mM PIPES, 1 mM EGTA, 1 mM MgSO4, pH 6.8) and lysed by sonication followed by centrifugation (15,000 rpm, 15 min, 4° C.). The supernatant was then placed in a boiling water bath for 20 min, followed by centrifugation (15,000 rpm, 15 min, 4° C.). Supernatant was loaded onto a Q-Sepharose® Fast Flow column (GE healthcare, Cat. No 17-0510-01), the flow-through fraction was loaded onto an SP-Sepharose® Fast Flow column (GE healthcare, Cat. No 17-0729-01), and tau protein was eluted with elution buffer (100 mM PIPES, 1 M NaCl, 1 mM EGTA, 1 mM MgSO4, 0.2 M NaCl, pH 6.8). Collected fractions of tau-containing eluates were pooled, concentrated and dialyzed against HEPES buffer (25 mM HEPES, 0.1 mM EDTA, 0.5 mM DTT, 100 mM NaCl, pH 7.2) and stored at −80° C. in small aliquots until use. Protein concentration was determined by UV absorption.
# (§2) (B) Preparation of heparin-induced aggregated tau (aTau): 2 μM of tau prepared in 30 mM Tris-HCl, pH 7.5 buffer was incubated in tube with 15 μM heparin (Sigma, Cat. No H3149) at 37° C. for 24 hours.
# (D) In vitro fluorometric aTau binding assays: 2 μM aTau was diluted to 0.04 μM with 30 mM Tris-HCl (pH 6.8), and then incubated with serially diluted compound (three-fold serial dilutions, from 10 to 0.00017 μM) in a 96-well plate (Corning, Cat. No 3573) at 37° C. for 1 hour. Fluorescence intensity (excitation/emission=370/500 nm) of APN-0729 was read by microplate spectrometer (EnSpire 2300, PerkinElmer). Compound Kd values were calculated using the following equation: Y=Bmax* X (Kd+X), where X is the concentration of compound; Y is the fluorescence signal of (compound+aTau)−(compound+DMSO); and Bmax is the maximum signal.
# T2 sequence (P10636 1-441 isoform P10636-8): as the sequence (P10636 1-441 isoform P10636-8 P301L) above, with L301P counted along it
row,Compound,Kd [nM]
1,"CN(C)c1ccc2nc(-c3ccc(-c4ccc(NCCOCCOCCOCCOCCOCCOc5ccc6c(c5)C(=O)N(C5CCC(=O)NC5=O)C6=O)nc4)cc3)sc2c1 (stereo not drawn) [Compound 160275, 2-[2,6-bis(oxo)piperidin-3-yl]-5-[2-[2-[2-[2-[2-[2-[[5-[4-[6-(dimethylamino)-1,3-benzothiazol-2-yl]phenyl]pyridin-2-yl]amino]ethoxy]ethoxy]ethoxy]ethoxy]ethoxy]ethoxy]isoindole-1,3-dione]",230

# Target: T2, heparin-induced aggregated tau (aTau), full-length 2N4R human Tau
# Test: PBB5 competition assay
# Format: binding
# Conditions: 0.12 μM aTau, 0.1 μM PBB5, 37° C. 1 hour, PBB5 fluorescence 530/690 nm
# Procedure: as §1, §2
# (E) PBBS competition assay: 2 μM of aTau was diluted to 0.12 μM by […] (pH 6.8) and then incubated with 0.1 μM 2-(4-(2-(methylamino)pyridine-5-yl)-1,3-butadiene-1-yl)benzothiazole-6-ol (PBB5) and serially diluted compound (three-fold serial dilution, from 10 to 0.00017 μM) in a 96-well plate (Corning, Cat. No 3573) at 37° C. for 1 hour. Fluorescence intensity (excitation/emission=530/690 nm) of PBB5 was read by microplate spectrometer (EnSpire 2300, PerkinElmer). Percentage of competition was calculated using the following equation: (Max−well of compound alone)/(Max−Min)*100%, where Max=(Tau+PBB5) signals−(buffer+PBB5) signals; and Min=(buffer+PBB5) signals−(buffer+PBB5) signals.
# The IC50 value of each compound was calculated with GraphPad Prism software using the “4 Parameter Logistic Model or Sigmoidal Dose-Response Model”:
# Y=Bottom+(Top−Bottom)/(1+(IC50/×)^HillSlope)
row,Compound,IC50 [nM]
1,"CN(C)c1ccc2nc(-c3ccc(-c4ccc(NCCOCCOCCOCCOCCOCCOc5ccc6c(c5)C(=O)N(C5CCC(=O)NC5=O)C6=O)nc4)cc3)sc2c1 (stereo not drawn) [Compound 160275, 2-[2,6-bis(oxo)piperidin-3-yl]-5-[2-[2-[2-[2-[2-[2-[[5-[4-[6-(dimethylamino)-1,3-benzothiazol-2-yl]phenyl]pyridin-2-yl]amino]ethoxy]ethoxy]ethoxy]ethoxy]ethoxy]ethoxy]isoindole-1,3-dione]",1290

# Same assay, conditions: 0.12 μM aTau, 0.1 μM PBB5, compound up to 10 μM; read-out: Competition Assay with PBB5: Bmax (%)
row,Emax [%],Compound
1,100,"CN(C)c1ccc(-c2ccc(-c3cn4cc(OCCOCCN5C(=O)CCC(N6C(=O)c7ccc(O)cc7C6=O)C5=O)ccc4n3)cc2)c(F)n1 (stereo not drawn) [Compound 160570, 2-[1-[2-[2-[2-[4-[6-(dimethylamino)-2-fluoranyl-pyridin-3-yl]phenyl]imidazo[1,2-a]pyridin-6-yl]oxyethoxy]ethyl]-2,6-bis(oxidanylidene)piperidin-3-yl]-5-oxidanyl-isoindole-1,3-dione]"
2,100,"CN(C)c1ccc2nc(-c3ccc(-c4ccc(NCCOCCN5C(=O)CCC(N6C(=O)c7ccc(O)cc7C6=O)C5=O)nc4)cc3)sc2c1 (stereo not drawn) [Compound 160703, 2-[1-[2-[2-[[5-[4-[6-(dimethylamino)-1,3-benzothiazol-2-yl]phenyl]pyridin-2-yl]amino]ethoxy]ethyl]-2,6-bis(oxidanylidene)piperidin-3-yl]-5-oxidanyl-isoindole-1,3-dione]"

row,Compound,Emax [%]
1,"CN(C)c1ccc2nc(-c3ccc(-c4ccc(NCCOCCOCCOCCOCCOCCOc5ccc6c(c5)C(=O)N(C5CCC(=O)NC5=O)C6=O)nc4)cc3)sc2c1 (stereo not drawn) [Compound 160275, 2-[2,6-bis(oxo)piperidin-3-yl]-5-[2-[2-[2-[2-[2-[2-[[5-[4-[6-(dimethylamino)-1,3-benzothiazol-2-yl]phenyl]pyridin-2-yl]amino]ethoxy]ethoxy]ethoxy]ethoxy]ethoxy]ethoxy]isoindole-1,3-dione]",96
